# Data from publication PMC9527238, “Glutamate and GABAA receptor crosstalk mediates homeostatic regulation of neuronal excitation in the mammalian brain” (Signal Transduction and Targeted Therapy, 2022).
# Where two headings read alike, the source gives them in different places.
# Legend:
# rat α1β2 GABAARs = target: T1, rat α1β2 GABAARs (Rattus norvegicus, UniProt P62813+P63138); experiment: Whole-cell patch clamp of GABA-evoked currents, HEK293 cells expressing α1β2; type: cell-based
# T1 construct: expressed in transfected cells; host or cells: HEK293
# Description: (§1) Co-expression of the α and β subunits is the minimum requirement for a functional recombinant GABAAR expressed in a heterologous cell line such as HEK293, while co-expression of the α, β and γ subunits is required for the recombinant receptor with a full pharmacological profile.[2] We therefore transiently expressed either rat α1β2 or α1β2γ2 subunits in HEK293 cells.
# HEK293 cells were transiently transfected with rat GABAAR α1/β2 (a–e) or α1/β2/γ2 (f) subunits. Whole-cell voltage-clamp recordings were performed with a chloride-based intracellular recording solution at a holding membrane potential of −60 mV.
# (§2) HEK293 cells were cultured in DMEM (Invitrogen) supplemented with 10% fetal bovine serum. Cells were grown to 40–60% confluence and transiently transfected using Lipofectamine 2000 (Invitrogen) with 1:0.5–1 plasmid/lipid ratio. Cells were transfected with a pBK-CMV expression vector containing a rat recombinant GABAAR α, β or γ subunits. Co-transections were done with a plasmid ratio of 1:1 αβ and 2:2:1 for αβγ subunit combinations, respectively. pcDNA3.1-GFP was also co-transfected along with GABAAR subunits as a transfected marker in order to facilitate the visualization of the transfected cells during electrophysiological experiments. Cells were re-plated on glass coverslips after 15–20 h transfection and were cultured for an additional 15–24 h before whole-cell patch-clamp recordings.
# (§3) Whole-cell patch-clamp recordings were performed under voltage-clamp mode using an Axopatch 200B or 1D patch-clamp amplifier (Molecular Devices) on HEK293 cells and cultured neurons. Whole-cell currents were recorded at a holding potential of −60 mV, and signals were filtered at 2 kHz, digitized at 10 kHz (Digidata 1322 A). Recording pipettes (3–5 MΩ) were filled with the intracellular solution that contained (mM): CsCl 140, HEPES 10, Mg-ATP 4, QX-314 5, pH 7.20; osmolarity, 290–295 mOsm. BAPTA (10 mM) was added in the intracellular solution. The coverslips were continuously superfused with the extracellular solution containing (mM): NaCl 140, KCl 5.4, HEPES 10, MgCl2 1.0, CaCl2 1.3, glucose 20, pH 7.4; osmolarity, 305–315 mOsm. […] Dose–response curves were created by fitting data to Hill equation: I = Imax/[1 + (EC50/[A])^n], where I is the current, Imax is the maximum current, [A] is a given concentration of agonist, n is the Hill coefficient. […] All experiments were performed at room temperature.
# rat α1β2γ2 GABAARs = target: T2, rat α1β2γ2 GABAARs (Rattus norvegicus, UniProt P62813+P63138); experiment: Whole-cell patch clamp of GABA-evoked currents, HEK293 cells expressing wild-type α1β2γ2; type: cell-based
# T2 construct: expressed in transfected cells; host or cells: HEK293
# Procedure: as §1, §2, §3
# α1β2 GABAARs = target: T3, α1β2 GABAARs (Rattus norvegicus, UniProt P62813+P63138); experiment: [3H]glutamate binding assay, plasma membranes of HEK293 cells overexpressing α1 and β2
# T3 construct: expressed in transfected cells; host or cells: HEK293
# Procedure: For membrane preparation, transfected or non-transfected HEK293 cells were washed twice with cold PBS and harvested by scraping into 5 ml cold PBS. Cells were then centrifuged at 1200 × g for 12 min at 4 °C and medium was removed. The washing procedure was repeated twice. Then the cell pellet was re-suspended into 1 ml of 50 mM Tris-HCl buffer (pH 7.4, with protease inhibitor) and homogenized using syringes with 18-G, 21-G and 23-G needles.
# To separate the membrane, the homogenate were centrifuged for 20 min at 20,000 × g at 4 °C. Then the pellet was re-suspended into 1 ml of 50 mM Tris-HCl buffer, pH 7.4 and centrifuged again. After repeating this procedure for one more time, the pellet was re-suspended into 1 ml of 50 mM Tris-HCl buffer, pH 7.4 and the protein concentration was measured.
# To conduct the binding assay, 100 µg membrane enriched preparation was incubated with 40 nM [3H]-Glutamate in a total volume of 0.5 ml in 50 mM Tris-HCl buffer, pH 7.4 for 1 h on ice. […] Then the reaction was terminated by quickly filtering the solution on Whatman filter paper and washing by 3.5 ml Tris-HCl buffer. Radioactivity was measured in a Beckman liquid scintillation counter.
# native GABAARs = experiment: GABA-evoked whole-cell currents in cultured hippocampal neurons; type: cell-based, rat
# Procedure: (§4) Cultured hippocampal neurons were prepared from the brains of D18 fetal Wister rats. Tissues were digested with a 0.25% trypsin solution (Invitrogen) for 25 min at 37 °C, and then mechanically dissociated using a fire-polished Pasteur pipette. Next, the cell suspension was centrifuged at 2500 × g for 50 s and the cell pellets were resuspended in DMEM containing 10% Fetal Bovine Serum (FBS; Sigma-Aldrich). Cells were seeded on poly-D-lysine-coated 24-well coverslips at a density of 2.5 × 10^5 cells/well. Cultures were maintained in a humidified incubator with 5% CO2 at 37 °C. After 24 h, plating medium was changed to Neurobasal medium supplemented with B-27 supplement and L-glutamine, and the media changed twice weekly thereafter. Cultured neurons were used for electrophysiological recordings between 10–14 days after plating.
# as §3
# postsynaptic GABAARs = experiment: mIPSCs in cultured hippocampal neurons; type: cell-based, rat; settings: AP5 200 μM; TTX 0.5 μM, CNQX 10 μM
# Procedure: (§5) GABAAR-mediated inhibitory processes in the CNS include phasic and tonic inhibitions. The phasic inhibition is primarily mediated by the activation of postsynaptic GABAARs and can be evaluated by recording miniature inhibitory postsynaptic currents (mIPSCs; Fig. 2c).
# as §4, with “Cultured neurons were used for electrophysiological recordings between 10–14 days after plating.” left out
# (§6) Whole-cell patch-clamp recordings were performed under voltage-clamp mode using an Axopatch 200B or 1D patch-clamp amplifier (Molecular Devices) on HEK293 cells and cultured neurons. Whole-cell currents were recorded at a holding potential of −60 mV, and signals were filtered at 2 kHz, digitized at 10 kHz (Digidata 1322 A). […]
# extrasynaptic GABAARs = experiment: GABAAR-mediated tonic currents in cultured hippocampal neurons; type: cell-based, rat; settings: prior addition of AP5 200 μM; bicuculline 10 μM
# Procedure: as §5
# as §4, with “Cultured neurons were used for electrophysiological recordings between 10–14 days after plating.” left out
# as §6
# [1] = tested on: GABAAR-mediated currents, WT mice; experiment: Whole-cell recording of CA1 neurons, hippocampal slices of WT mice; type: cell-based, mouse; settings: AP5 50 µM
# Procedure: (§7) We next determined if glutamate-mediated allosteric potentiation of GABAAR function was impaired in hippocampal slices acutely prepared from postnatal 90-day-old KI mice. Whole-cell recordings of CA1 neurons were performed under voltage clamp configuration at a holding potential of −60 mV.
# (§8) Mice were deeply anesthetized with urethane (1.5 g/kg, i.p.) and transcardially perfused with ice cold sucrose hypertonic cutting solution (in mM: KCl 3.0, NaH2PO4.H2O 1.25, NaHCO3 26, Na-vitamin C 0.4, Na-lactate 2.0, Na-pyruvate 2.0, D-glucose 10.0, Sucrose 220, CaCl2 0.1, MgCl2 2, MgSO4 4.0, pH 7.4, 290–300 mOsm/l) prior to decapitation as described previously.[47] After decapitation, the brain was rapidly removed and transferred to the ice cold cutting solution bubbled with 95% O2 and 5% CO2, and acute coronal brain slices (400 μm) were prepared on a Leica vibratome (VT1200S, Germany). All brain slices were placed into a standard artificial cerebral spinal fluid (ACSF) (in mM: NaCl 124, KCl 2.8, NaH2PO4.H2O 1.25, NaHCO3 26, Na-vitamin C 0.4, Na-lactate 2.0, Na-pyruvate 2.0, D-glucose 10.0, CaCl2 2, MgSO4 1.2, pH 7.4, 290–300 mOsm/l) incubated at 35 °C for 2 h prior to recording. Field excitatory postsynaptic potential (fEPSP) recordings were performed under current-clamp mode using HEKA EPC10 patch-clamp amplifier (HEKA Electronic, Lambrecht/Pfalz, Germany). […]
# [2] = target: T4, GABAAR-mediated currents, β2E181G KI mice (Mus musculus, UniProt P63137, E206G); experiment: Whole-cell recording of CA1 neurons, hippocampal slices of homozygous β2E181G KI mice; type: cell-based; settings: AP5 50 µM; homozygous KI slices
# T4 construct: from tissue; host or cells: acute hippocampal slices of homozygous β2E181G knock-in mice (C57BL/6J), CA1 neurons
# Procedure: as §7, §8
# [3] = Kainic acid-induced seizure; type: in vivo, mouse; settings: 20 mg/kg i.p.
# Procedure: To test the allosteric potentiation of GABAARs by presynaptically released glutamate under certain physiological conditions, we delivered five trains of four pulses of theta-burst stimulation to increase endogenous glutamate released from the presynaptic glutamatergic terminals, and compared its effect on the pharmacologically isolated eIPSCs (following blockade of both AMPAR and NMDAR-mediated EPSCs) in WT and KI mice.
# Kainic acid (KA) was dissolved in sterile saline at the concentration of 20 mg/ml. KA (20 mg/kg, i.p.) or same volume of saline as vehicle control was administered by intraperitoneal injection to induce seizures. Diazepam (20 mg/kg, s.c., obtained from Children’s Hospital of Chongqing Medical University) was injected 30 min before the injection of KA. […] All experiments were performed in accordance with approved institutional animal care guidelines.
# NMDA receptors = experiment: NMDA receptor blockade in cultured hippocampal neurons; type: cell-based, rat; settings: MK-801 10 μM co-applied with NMDA 50 μM through the bath for 3 min
compound,measurement,setting,value
"N#Cc1cc2[nH]c(=O)c(=O)[nH]c2cc1[N+](=O)[O-] [CNQX, 6-cyano-7-nitroquinoxaline-2,3-dione]","GABA evoked currents in presence of ligand, compared with GABA alone","rat α1β2 GABAARs; CNQX 10 μM, GABA 1 μM",107.3 ± 6.5%
same,effect on GABA-evoked currents,"rat α1β2 GABAARs; CNQX 1 mM, data not shown",did not affect GABA-evoked currents
same,"GABA currents in presence of ligand, compared with GABA alone","rat α1β2γ2 GABAARs; CNQX, concentration not given, GABA 1 μM",105.6 ± 6.5%
"Cc1onc(O)c1CC(N)C(=O)O (stereo not drawn) [AMPA, α-amino-3-hydroxyl-5-methyl-4-isoxazole-propionate]","GABA-mediated currents in presence of ligand, compared with currents induced by GABA alone",rat α1β2 GABAARs,339.2 ± 38.0%
same,"GABA currents in presence of ligand, compared with GABA alone",rat α1β2γ2 GABAARs,165.8 ± 6.2%
"CN[C@H](CC(=O)O)C(=O)O [NMDA, N-methyl-D-aspartate]","GABA-mediated currents in presence of ligand, compared with currents induced by GABA alone",rat α1β2 GABAARs,267.6%
same,"GABA currents in presence of ligand, compared with GABA alone",rat α1β2γ2 GABAARs,171.7 ± 5.4%
"N[C@H](C(=O)O)[C@@H](OCc1ccccc1)C(=O)O [TBOA, threo-β-Benzyloxyaspartic acid]","GABA-mediated currents in presence of ligand, compared with currents induced by GABA alone","rat α1β2 GABAARs; ligand 100 μM, GABA 1 μM",202.8 ± 18.3%
same,"GABA currents in presence of ligand, compared with GABA alone","rat α1β2γ2 GABAARs; ligand 100 μM each, GABA 1 μM",159.9 ± 7.8%
"N[C@H](CCCP(=O)(O)O)C(=O)O [AP5, D-2-amino-5-phosphonovaleric acid]","GABA-mediated currents in presence of ligand, compared with currents induced by GABA alone","rat α1β2 GABAARs; ligand 100 μM, GABA 1 μM",254.9 ± 33.0%
same,"GABA currents in presence of ligand, compared with GABA alone","rat α1β2γ2 GABAARs; ligand 100 μM each, GABA 1 μM",173.3 ± 3.7%
same,[3H]glutamate binding activity in presence of competitor,α1β2 GABAARs; 40 nM [3H]glutamate + 0.4 mM non-radiolabeled competitor,240.8 ± 36.8 CPM
same,"amplitude of GABA currents, % of the control","native GABAARs; AP5 100 μM bath, GABA 0.5 μM, TTX and CNQX present",157.7 ± 9.1%
same,reversal potential of GABA currents (I-V curve),"native GABAARs; AP5 200 µM, GABA 10 μM",without altering the reversal potential
same,potentiation of GABA currents after NMDA receptor blockade,"native GABAARs; after MK-801 10 μM + NMDA 50 μM for 3 min, AP5 200 μM, GABA 10 μM (Fig. S1a)",reversibly potentiated GABA currents
same,EC50,"native GABAARs; read-out: EC50 of AP5 enhancement of GABA currents, GABA 0.5 μM",150 ± 27 µM
same,mIPSC amplitude,postsynaptic GABAARs,36.6 ± 3.6 pA
same,mIPSC frequency,postsynaptic GABAARs,0.90 ± 0.29 Hz
same,tonic current revealed by bicuculline,extrasynaptic GABAARs,17.28 ± 2.80 pA
same,GABA-evoked currents relative to baseline,[1],193.5 ± 27.0%
same,GABA-evoked currents relative to baseline,[2],104.6 ± 12.7%
C=C(C)[C@H]1CN[C@H](C(=O)O)[C@H]1CC(=O)O [kainic acid],"GABA-mediated currents in presence of ligand, compared with currents induced by GABA alone",rat α1β2 GABAARs,388.2 ± 61.0%
same,"GABA currents in presence of ligand, compared with GABA alone",rat α1β2γ2 GABAARs,188.7 ± 5.5%
same,latency of kainic acid-induced seizure activity,[3]; WT mice,189.6 ± 15.2 s
same,latency of kainic acid-induced seizure activity,[3]; β2E181G KI mice,161.0 ± 4.0 s
C[C@]12N[C@H](Cc3ccccc31)c1ccccc12 [MK-801],effect on GABA currents,"rat α1β2 GABAARs; MK-801, concentration not given, data not shown",did not affect GABA currents
same,NMDA receptor blockade,NMDA receptors,complete and long-lasting NMDA receptor blockade
[^3H]glutamate,[3H]glutamate binding activity,"α1β2 GABAARs; 40 nM [3H]glutamate only, 100 µg membrane, 1 h on ice",938.2 ± 82.7 CPM
